Like-named read-outs stand apart in the source and are kept apart here. Where no end group is shown, it is not given here.
Assays:
Type in all cases: cell-based
[1] = tested on: Corynebacterium glutamicum (Cg, ATCC 13032)
Protocol: (§1) The peptides were screened for antibacterial activity against two strains of Gram-positive and two strains of Gram-negative bacteria; Corynebacterium glutamicum (Cg, ATCC 13032), Staphylococcus aureus (Sa, ATCC 9144), Pseudomonas aeruginosa (Pa, ATCC 27853) and Escherichia coli (Ec, ATCC 25922).
(§2) Cultures stored at −80° C. in glycerol were transferred to Müller-Hinton plates (MH, Difco, Lawrence, Kans., USA) and incubated for 24 h at 35° C. A few colonies of each bacterial strain were transferred to 5 ml liquid MH medium and left shaking at room temperature overnight at 600 rpm. Cultures of actively growing bacteria (20 μl) were inoculated in 5 ml MH medium and left shaking for 2 h at room temperature. The antibacterial assays were performed as previously described by Sperstad, S. V., et al. ((2009) Mol. Immunol. 46, 2604-2612) with the following exception: bacterial cultures were diluted with medium to 2.5-3×10^4 bacteria/ml concentrations. An aliquot of 50 μl (1250-1500 bacterial cells) was added to each well in 96-well Nunclon™ microtiter plates (Nagle Nunc Int., Denmark) preloaded with peptide solution (50 μl).
(§3) The microtiter plates were incubated for 24 h at 35° C. with optical density recorded every hour using an Envision 2103 multilabel reader, controlled by a Wallac Envision manager (PerkinElmer, Conn., USA). Minimum inhibitory concentration (MIC) was defined as a sample showing complete inhibition (as measured by optical density at 595 nm) compared to the negative (growth) controls, consisting of bacteria and water. Oxytetracycline (20 μM) served as a positive (inhibition) control.
(§4) The synthetic peptides were tested for antibacterial activity in concentrations ranging from 200 to 0.1 μM in two-fold dilutions. All tests were performed in triplicates.

[2] = tested on: Escherichia coli (Ec, ATCC 25922)
Protocol: as §1, §2, §3, §4

[3] = tested on: Pseudomonas aeruginosa (Pa, ATCC 27853)
Protocol: as §1, §2, §3, §4

[4] = tested on: Staphylococcus aureus (Sa, ATCC 9144)
Protocol: as §1, §2, §3, §4

human red blood cells = assay: Haemolytic assay; conditions: for Haemolysis (%) 25 μM: peptide 25 μM; for Haemolysis (%) 25 μM / Haemolysis (%) 200 μM: human red blood cells, one hour at 37° C.; for Haemolysis (%) 200 μM: peptide 200 μM
Protocol: Selected synthesised peptide analogues were also screened for haemolytic activity using human red blood cells as described previously (Sperstad, S. V., et al. (2009) Dev. Comp. Immunol. 33, 583-591). The assay was performed on 96-well U-shaped microtiter plates (Nagle Nunc) with 50 μl peptide sample, 40 μl phosphate-buffered saline (PBS) and 10 μl red blood cells. After one hour of incubation at 37° C. in a shaker, the plate was centrifuged at 200 g for 5 min and the supernatants (60 μl) were carefully transferred to a new flat-bottomed polycarbonate microtiter plate (Nagle Nunc) and the release of haemoglobin (absorbance at 550 nm) was measured on a Synergy H1 multimode reader (BioTek, Vt., USA). Cell suspension added 0.05% Triton X-100 (Sigma-Aldrich, Mo., USA) in PBS served as positive (100% haemolysis) control and cell suspension added PBS served as negative (0% haemolysis, blank) control. The percent haemolysis was calculated using the formula [(Asample-Abaseline)/(Atriton-Abaseline)]×100. The cytotoxic peptide melittin (Sigma-Aldrich) was used as a positive control peptide and for comparison. The experiment was performed in triplicates with peptide concentrations ranging from 200 μM to 1.56 μM in two-fold dilutions.

Aureobasidium pullulans = conditions: 24 h
Protocol: (§5) The synthetic peptides were also screened for antifungal activity against Candida albicans (ATCC 10231), Aureobasidium pullulans and Rhodotorula sp. (the last two were obtained from Professor Arne Tronsmo, The Norwegian University of Life Sciences, As, Norway). The antifungal assay was performed as previously described (Sperstad, S. V., et al. (2009) Dev. Comp. Immunol. 33, 583-591). Briefly, fungal spores were dissolved in potato dextrose broth (Difco, Lawrence, Kans., USA) to a concentration of 4×10^5 spores/ml. The spores (50 μl) were inoculated on 96-well Nunclon™ microtiter plates containing the synthetic peptides (50 μl) dissolved in MQ-H2O. […] The negative (growth) control consisted of medium and fungal solution. The peptides were tested for activity in concentrations ranging from 100 to 0.1 μM in two-fold serial dilutions. All tests were performed in triplicates.

[5] = tested on: Candida albicans (ATCC 10231); conditions: ATCC 10231, 24 h
Protocol: as §5

Rhodotorula sp. = conditions: 24 h
Protocol: as §5

[6] = tested on: A. pullulans, Rhodotorula sp. and C. albicans
Protocol: as §5

| Substance | MIC (μM) Cg ([1]; ATCC 13032, 24 h) [µM] | MIC (μM) Ec ([2]; ATCC 25922, 24 h) [µM] | MIC (μM) Pa ([3]; ATCC 27853, 24 h) [µM] | MIC (μM) Sa ([4]; ATCC 9144, 24 h) [µM] | Haemolysis (%) 25 μM (human red blood cells) [%] | Haemolysis (%) 200 μM (human red blood cells) [%] | MIC (μM) A. pullulans (Aureobasidium pullulans) [µM] | MIC (μM) C. albicans [5] [µM] | MIC (μM) Rhodotorula sp. (Rhodotorula sp.) [µM] | MIC (μM) Cg ([1]; ATCC 13032) [µM] | MIC (μM) Ec ([2]; ATCC 25922) [µM] | MIC (μM) Pa ([3]; ATCC 27853) [µM] | MIC (μM) Sa ([4]; ATCC 9144) [µM] | haemolytic activity (human red blood cells; at concentrations closer to the MIC-values) | Haemolysis (%) 200 μM (human red blood cells; listed as lead peptide) [%] | antifungal MICs (range over the three fungi) [6] [µM] | Haemolysis (%) 200 μM (human red blood cells; listed as full HC) [%] |
| --- | --- | --- | --- | --- | --- | --- | --- | --- | --- | --- | --- | --- | --- | --- | --- | --- | --- |
| GWWRRTAAKVRK-NH2 [Peptide V7A, GWWRRTAAKVRK-NH2] | 1.6 | 12.5 | 12.5 | 100 | 0.0 | 0.0 | 25 | 25 | 12.5 | – | – | – | – | – | – | – | – |
| GWWRATVAKVRK-NH2 [Peptide R5A, GWWRATVAKVRK-NH2] | 0.8 | 6.3 | 25 | 100 | 0.0 | 0.0 | 25 | 25 | 12.5 | – | – | – | – | – | – | – | – |
| GWWRRKVAKVRK-NH2 [HC(1-12)K6A8K12, GWWRRKVAKVRK-NH2] | 1.6 | 12.5 | 50 | 12.5 | – | – | 25 | 50 | 25 | – | – | – | – | – | – | – | – |
| GWARRWVAKVRK-NH2 [HC(1-12)A3W6A8K12, GWARRWVAKVRK-NH2] | 0.8 | 6.3 | 12.5 | 50 | – | – | 25 | 6.3 | 6.3 | – | – | – | – | – | – | – | – |
| GWWRRTVDKVRNAGRK [HC(1-16), GWWRRTVDKVRNAGRK] | 0.8 | 6.3 | 12.5 | 200 | 0.0 | 0.0 | 50 | 100 | 25 | – | – | – | – | – | – | – | – |
| GWWRRTVAKARK-NH2 [Peptide V10A, GWWRRTVAKARK-NH2] | 1.6 | 12.5 | 6.3 | 100 | 0.0 | 1.0 | 50 | 25 | 12.5 | – | – | – | – | – | – | – | – |
| GWWRRTVAKVRK-NH2 [HC(1-12)A8K12, GWWRRTVAKVRK-NH2] | – | 6.3 | 3.1 | 25 | 2.4 | 25.1 | – | – | – | 0.4 | 6.3 | 6.3 | 6.3 | negligible | 25 | 1.6 to 6.3 | – |
| GWWARTVAKVRK-NH2 [Peptide R4A, GWWARTVAKVRK-NH2] | 1.6 | 6.3 | 12.5 | 50 | 0.0 | 3.6 | 50 | 25 | 50 | – | – | – | – | – | – | – | – |
| GWWRRWVKKVRK-NH2 [HC(1-12)W6K8K12, GWWRRWVKKVRK-NH2] | 1.6 | 6.3 | 3.1 | 3.1 | – | – | 12.5 | 25 | 6.3 | – | – | – | – | – | – | – | – |
| GWWRRTVAKVAK-NH2 [Peptide R11A, GWWRRTVAKVAK-NH2] | 1.6 | 12.5 | 12.5 | 100 | 0.0 | 0.0 | 50 | 25 | 12.5 | – | – | – | – | – | – | – | – |
| RWWRRWVRRVRR-NH2 [HC(1-12)R1W6R8,9,12-NH2, RWWRRWVRRVRR-NH2] | 0.8 | 3.1 | 3.1 | 3.1 | – | – | 25 | 12.5 | 3.1 | – | – | – | – | – | – | – | – |
| GWWRRTVDKVRNAGRKVAGFASKACGALGH [HC, reference compound] | 0.4 | 0.8 | 1.6 | 3.1 | 13.5 | 74.6 | 12.5 | 100 | 12.5 | – | – | – | – | – | – | – | 75 |
| KWWRRWVKKVRK-NH2 [HC(1-12)K1W6K8K12, KWWRRWVKKVRK-NH2] | 0.4 | 3.1 | 1.6 | 6.3 | – | – | 25 | 6.3 | 3.1 | – | – | – | – | – | – | – | – |
